{"source": "ChEMBL document CHEMBL1201862", "about": "“PubChem BioAssay data set” (2004)", "assay_in_all_cases": "NCI-60 cell line screen, 48 h", "key": {"SK-MEL-5": {"system": "SK-MEL-5"}, "DU-145": {"system": "DU-145"}, "ACHN": {"system": "ACHN"}, "COLO 205": {"system": "COLO 205"}, "UACC-62": {"system": "UACC-62"}, "EKVX": {"system": "EKVX"}, "PC-3": {"system": "PC-3"}, "NCI-H226": {"system": "NCI-H226"}, "K562": {"system": "K562"}, "NCI-H460": {"system": "NCI-H460"}, "A549": {"system": "A549"}, "HCT-15": {"system": "HCT-15"}, "MDA-MB-435": {"system": "MDA-MB-435"}, "RPMI-8226": {"system": "RPMI-8226"}, "SK-MEL-2": {"system": "SK-MEL-2"}, "IGROV-1": {"system": "IGROV-1"}, "HL-60": {"system": "HL-60"}, "SNB-75": {"system": "SNB-75"}, "RXF 393": {"system": "RXF 393"}, "SF-539": {"system": "SF-539"}, "HOP-92": {"system": "HOP-92"}, "SR": {"system": "SR"}, "NCI/ADR-RES": {"system": "NCI/ADR-RES"}, "UACC-257": {"system": "UACC-257"}, "SW-620": {"system": "SW-620"}, "TK-10": {"system": "TK-10"}, "CAKI-1": {"system": "CAKI-1"}, "SN12C": {"system": "SN12C"}, "CCRF-CEM": {"system": "CCRF-CEM"}, "HT-29": {"system": "HT-29"}, "LOX IMVI": {"system": "LOX IMVI"}, "SNB-19": {"system": "SNB-19"}, "Hs-578T": {"system": "Hs-578T"}, "U-251": {"system": "U-251"}, "HOP-62": {"system": "HOP-62"}, "HCT-116": {"system": "HCT-116"}, "SK-OV-3": {"system": "SK-OV-3"}, "786-0": {"system": "786-0"}, "OVCAR-8": {"system": "OVCAR-8"}, "BT-549": {"system": "BT-549"}, "SK-MEL-28": {"system": "SK-MEL-28"}, "MDA-MB-231": {"system": "MDA-MB-231"}, "MCF7": {"system": "MCF7"}, "MOLT-4": {"system": "MOLT-4"}, "T47D": {"system": "T47D"}, "OVCAR-3": {"system": "OVCAR-3"}, "SF-268": {"system": "SF-268"}, "SF-295": {"system": "SF-295"}, "NCI-H522": {"system": "NCI-H522"}, "HCC 2998": {"system": "HCC 2998"}, "MDA-N": {"system": "MDA-N"}, "KM12": {"system": "KM12"}, "M14": {"system": "M14"}, "NCI-H23": {"system": "NCI-H23"}, "UO-31": {"system": "UO-31"}}, "note": "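The compound was tested at five concentrations on cells cultured in 96-well plates, with a 48-hour exposure period. GI50 = concentration required for 50% inhibition of growth.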 Active and inactive are the calls of the source. No stated cut-off is given here; in the data, active = GI50 up to about 1.1 µM and inactive = higher.", "data": [{"smiles": "COc1ccc(/N=c2/oc3ccccc3cc2C(N)=O)cc1", "values": [{"measurement": "GI50", "setting": "SK-MEL-5", "result": "> 100 µM (inactive)"}, {"measurement": "GI50", "setting": "DU-145", "result": "> 100 µM (inactive)"}, {"measurement": "GI50", "setting": "ACHN", "result": "18.4 µM (inactive)"}, {"measurement": "GI50", "setting": "COLO 205", "result": "> 100 µM (inactive)"}, {"measurement": "GI50", "setting": "UACC-62", "result": "34.8 µM (inactive)"}, {"measurement": "GI50", "setting": "EKVX", "result": "> 100 µM (inactive)"}, {"measurement": "GI50", "setting": "PC-3", "result": "80 µM (inactive)"}, {"measurement": "GI50", "setting": "NCI-H226", "result": "65.9 µM (inactive)"}, {"measurement": "GI50", "setting": "K562", "result": "> 100 µM (inactive)"}, {"measurement": "GI50", "setting": "NCI-H460", "result": "> 100 µM (inactive)"}, {"measurement": "GI50", "setting": "A549", "result": "42 µM (inactive)"}, {"measurement": "GI50", "setting": "HCT-15", "result": "> 100", "unit": "µM"}, {"measurement": "GI50", "setting": "MDA-MB-435", "result": "92.5 µM (inactive)"}, {"measurement": "GI50", "setting": "RPMI-8226", "result": "> 100 µM (inactive)"}, {"measurement": "GI50", "setting": "SK-MEL-2", "result": "55.2 µM (inactive)"}, {"measurement": "GI50", "setting": "IGROV-1", "result": "24.5 µM (inactive)"}, {"measurement": "GI50", "setting": "HL-60", "result": "> 100 µM (inactive)"}, {"measurement": "GI50", "setting": "SNB-75", "result": "36.6 µM (inactive)"}, {"measurement": "GI50", "setting": "RXF 393", "result": "40.5 µM (inactive)"}, {"measurement": "GI50", "setting": "SF-539", "result": "23.1 µM (inactive)"}, {"measurement": "GI50", "setting": "HOP-92", "result": "27.8 µM (inactive)"}, {"measurement": "GI50", "setting": "SR", "result": "> 100 µM (inactive)"}, {"measurement": "GI50", "setting": "NCI/ADR-RES", "result": "39 µM (inactive)"}, {"measurement": "GI50", "setting": "UACC-257", "result": "> 100 µM (inactive)"}, {"measurement": "GI50", "setting": "SW-620", "result": "> 100 µM (inactive)"}, {"measurement": "GI50", "setting": "TK-10", "result": "22.5 µM (inactive)"}, {"measurement": "GI50", "setting": "CAKI-1", "result": "13.6 µM (inactive)"}, {"measurement": "GI50", "setting": "SN12C", "result": "> 100 µM (inactive)"}, {"measurement": "GI50", "setting": "CCRF-CEM", "result": "> 100 µM (inactive)"}, {"measurement": "GI50", "setting": "HT-29", "result": "> 100 µM (inactive)"}, {"measurement": "GI50", "setting": "LOX IMVI", "result": "33.7 µM (inactive)"}, {"measurement": "GI50", "setting": "SNB-19", "result": "1.91 µM (inactive)"}, {"measurement": "GI50", "setting": "Hs-578T", "result": "18.7 µM (inactive)"}, {"measurement": "GI50", "setting": "U-251", "result": "33.3 µM (inactive)"}, {"measurement": "GI50", "setting": "HOP-62", "result": "17.2 µM (inactive)"}, {"measurement": "GI50", "setting": "HCT-116", "result": "26 µM (inactive)"}, {"measurement": "GI50", "setting": "SK-OV-3", "result": "20 µM (inactive)"}, {"measurement": "GI50", "setting": "786-0", "result": "23.7 µM (inactive)"}, {"measurement": "GI50", "setting": "OVCAR-8", "result": "27.4 µM (inactive)"}, {"measurement": "GI50", "setting": "BT-549", "result": "32.3 µM (inactive)"}, {"measurement": "GI50", "setting": "SK-MEL-28", "result": "> 100 µM (inactive)"}, {"measurement": "GI50", "setting": "MDA-MB-231", "result": "30.5 µM (inactive)"}, {"measurement": "GI50", "setting": "MCF7", "result": "22.5 µM (inactive)"}, {"measurement": "GI50", "setting": "MOLT-4", "result": "> 100 µM (inactive)"}, {"measurement": "GI50", "setting": "T47D", "result": "> 100 µM (inactive)"}, {"measurement": "GI50", "setting": "OVCAR-3", "result": "> 100 µM (inactive)"}, {"measurement": "GI50", "setting": "SF-268", "result": "17.9 µM (inactive)"}, {"measurement": "GI50", "setting": "SF-295", "result": "26.3 µM (inactive)"}, {"measurement": "GI50", "setting": "NCI-H522", "result": "13.4 µM (inactive)"}, {"measurement": "GI50", "setting": "HCC 2998", "result": "> 100 µM (inactive)"}, {"measurement": "GI50", "setting": "MDA-N", "result": "> 100 µM (inactive)"}, {"measurement": "GI50", "setting": "KM12", "result": "43.3 µM (inactive)"}, {"measurement": "GI50", "setting": "M14", "result": "55.2 µM (inactive)"}, {"measurement": "GI50", "setting": "NCI-H23", "result": "29.8 µM (inactive)"}, {"measurement": "GI50", "setting": "UO-31", "result": "2.33 µM (inactive)"}]}]}
